Data on 91 compounds can be found in a melting point compilation (Tetko et al.; mined from patent text by program, amines drawn as free bases though some values may be those of a salt).

Broadly, the melting point is the temperature, or range, at which the solid turns liquid.

For the compound `COc1cc(C=CC(=O)OC2C=C(C)C(=O)CC(C)(C)C2O)ccc1O` (stereo unspecified), the melting point is 142 °C.
In the case of `CC(=O)N[C@H](Cc1ccc(C#N)cc1)C(=O)O` it was 173 to 175 °C.
With `Cc1ccc(N2C(=O)C(O)=C(C(=O)c3ccc(C(C)C)cc3)C2c2ccc(OC(F)F)cc2)nn1` (stereo unspecified), the melting point lay within 263 to 265 °C.
Under `OC(c1ccncc1)c1c[nH]c2ccc(F)cc12` (stereo unspecified) stands 171 to 173 °C; under `C=CCNc1nc(-c2ccccc2)ncc1C(=O)OCC`, 49 to 54 °C; under `O=[N+]([O-])c1ncc(Cl)cc1O`, 97 °C.
`Cc1noc(NS(=O)(=O)c2ccccc2-c2ccc(-c3ccon3)cc2)c1C` came in with a melting point of 85 to 90 °C.
In the case of `O=C(c1ccccc1)c1cncc(Br)c1` it was 66 to 68 °C; in that of `CC(=O)c1ccc(Nc2c3ccccc3nc3occc23)cc1`, 220 to 221 °C.
With `Cc1ccc(-c2ccccc2C(=O)O)cc1C(=O)NCC1CCCCCC1`, the melting point is 188 to 189 °C.
Under `CC(C)Nc1cccnc1N1CCN(C(=O)c2ccc(C(=O)NCCCn3ccnc3)cn2)CC1` stands 105 to 108 °C; under `COc1cc(OC)c(NC(=O)[C@H](Cc2ccc(OCc3ccccc3)cc2)NC(=O)OC(C)(C)C)c(OC)c1`, 89 to 95 °C; under `CC(=O)c1ccccc1-c1cccc(C(=O)O)c1`, 143 °C.
Under `COc1cccc(OC)c1-c1ccc(CC[C@H](NC(=O)c2c(Cl)cccc2Cl)C(=O)O)cc1` stands 105 to 107 °C; under `NC(=O)N1CCCC(=O)c2ccc(Cl)cc2CCC1=O`, 182 to 184 °C; under `O=C1CC2CCS(=O)c3ccccc3C2=NN1c1ccc(Cl)cc1` (stereo unspecified), 190 to 191 °C.
In the case of `COCCc1ccc(OCC(O)C(C)(C)[N+](=O)[O-])cc1` (stereo unspecified), the melting point lay in the range of 92 to 94 °C.
With `N#CCC1(C#N)CCC(=O)CC1`, the melting point lay within 154 to 155 °C.
Under `CCCCCCCCCCCCCCCCC(=O)Nc1ccc(O)cc1` stands 137 °C; under `CCCCCCCCCCOc1ccc(-c2ccc(OCc3ccccc3)c(F)c2)cc1F`, 95.8 to 98.6 °C.
Turning to `Cc1cccc2c1NC(=O)C2`, the melting point lay within 206 to 207 °C.
Regarding `CCCC(=O)Nc1cc2c(s1)CCN(C(C(=O)C1CC1)c1ccccc1F)C2` (stereo unspecified), the melting point was 154 to 157 °C.
Under `CCCN(CCC)C(=O)Cn1c(-c2ccc(Br)cc2)nc2cccnc21` stands 153 to 155 °C.
On to `COc1ccc(-c2c(CC(=O)O)c(-c3ccccc3)nn2-c2ccccc2)cc1`, for which the melting point lay in the range of 160 to 163 °C.
Under `CC(=O)c1ccc2c(c1)CCN(Cc1ccccc1)CC2` stands 89 to 91 °C; under `CC(=O)SC(Cc1ccc(F)cc1)C(=O)O` (stereo unspecified), 44 to 46 °C; under `C=CCO/N=C(/C(=O)O)c1ccc(OCCOc2ccc3ccccc3c2)s1`, 106 to 108 °C.
In the case of `CCCCCCCCCCNC(=O)N(O)CCCC(=O)OCC` it was 68 to 69 °C.
Under `Oc1ccc(C=Cc2ccncc2)cc1` stands 272 to 275 °C.
Compound `COc1cc(C(O)Cc2ccccc2)ccc1OCc1ccccc1` (stereo unspecified) registered a melting point of 97 to 98 °C.
Compound `N#CC(=NOS(=O)(=O)CCCCl)c1cccs1` registered a melting point of 56 to 58 °C.
Compound `COC(=O)C1=C(Cl)C(=O)CC(c2ccc(Cl)c(OC)c2F)N1` (stereo unspecified) returned a melting point of 127 to 129 °C.
In the case of `CN(C=O)C1c2ccccc2CCc2cc(Cl)ccc21` (stereo unspecified) it was 122 to 124 °C; in that of `CCOC(=O)CCCOc1ccc(-c2ccc(OCC)cc2)cc1C=O`, 69 to 70 °C.
In the case of `CCC(CC)(c1ccccc1F)c1c[nH]c2c(NS(C)(=O)=O)cccc12` it was 144 to 146 °C.
`COc1ccc(C(=O)NC(=O)Nc2cc3c(cc2F)/C(=C/c2ccc[nH]2)C(=O)N3)cc1` registered a melting point of 290 to 295 °C.
Under `COCCCn1nnnc1-c1cc(-c2cccc(C(=O)O)c2)c(OCc2ccccc2)cc1OCc1ccccc1` stands 59 to 63 °C; under `CN(C)CCC(c1ccncc1)S(=O)(=O)c1ccc(Cl)cc1` (stereo unspecified), 91 to 92 °C.
In the case of `C[C@H](CO)NC1=NS(=O)(=O)c2sc(Cl)cc2N1` it was 203 to 204 °C; in that of `CCNC(=O)n1c([Si](C)(C)C)cc2ccccc21`, 96 to 99 °C.
Under `CC(C)(C)c1cc(C2SCC(=O)N2CCC(=O)O)cc(C(C)(C)C)c1O` (stereo unspecified) stands 164 to 165 °C.
In turn, `Nc1c(Br)cc(Br)cc1S(=O)(=O)C(F)F` yielded a melting point of 84 to 88 °C.
The compound `COc1cc2c(cc1C)CCC=C2c1ncc[nH]1` yielded a melting point of 197 to 229 °C.
In the case of `CCOC(=O)c1c(SC)sc2c(F)c(F)c(F)cc2c1=O` it was 113 to 115 °C; in that of `O=C(COc1ccc(-c2c(Cl)c(CN3C(=O)CCC3=O)nc3sc4c(c23)CCS(=O)C4)cc1)NCc1ccccc1` (stereo unspecified), 220 to 221 °C; in that of `CCCCCc1c(C(C)C)nc(C(C)C)c(CO)c1-c1cccc(OC)c1`, 65 to 66 °C.
Under `CCOC(=O)c1c2ccc(CC(=O)NOCCO)ccc-2c(C(=O)OCC)c1N` stands 190 to 192 °C; under `O=C(O)CCC(=O)Nc1ccc2[nH]c(=O)c3ccccc3c2c1`, 224 to 228 °C; under `O=S(=O)(Nc1cccc(CCOCc2cccc(-c3ccccc3)n2)c1)C(F)(F)F`, 75 to 77 °C.
With `CCCCN(Cc1ccc(-c2ccccc2-c2nnnn2C(c2ccccc2)(c2ccccc2)c2ccccc2)cc1)c1nc(C)ncc1C(=O)OCC`, the melting point is 130 to 132 °C.
In the case of `CC(=C1SCCCS1)c1cccc(OCC(=O)O)c1` it was 133 to 134 °C; in that of `Cc1ccc2nc(CCl)cn2c1`, 88 to 89.2 °C.
In the case of `COc1ccc(-c2c(O)c3ccc(Cl)cc3[nH]c2=O)cc1` it was greater than 350 °C.
`CCCOc1cc(C#N)ccc1C(C)=O`: the melting point was in the range of 99.5 to 100 °C.
As for `CC(C)(C)N1CC(COc2cccc3c(S)nccc23)OC1=O` (stereo unspecified), the melting point fell in the range of 264 to 269 °C.
Under `CC(=O)C1CCC2C3CCC4CC(O)C(Br)CC4(C)C3C(=O)CC12C` (stereo unspecified) stands 172 to 173 °C; under `CC1(n2cc(C(=O)O)c(=O)c3cc(F)c(N4CCC(N)C4)c(F)c32)CC1` (stereo unspecified), greater than 300 °C; under `CC(C)(C)[Si](C)(C)O[C@@H](CCCC(=O)N1C(=O)OC[C@@H]1Cc1ccccc1)c1ccc(F)cc1`, 87.6 °C.
In the case of `CC(C)CCCC(C)C1CCC2C3CC=C4CC(OCC(=O)O)CCC4(C)C3CCC12C` (stereo unspecified) it was 160 °C; in that of `CC(=O)C(=CN(C)C)c1ccccc1`, 66 °C; in that of `CC(C)[Si](C(C)C)(C(C)C)N1C=C2C=C(C=O)OCC3=C2C(=C1)CC3N(C)C` (stereo unspecified), 104 to 106 °C.
Under `CCOC(=O)c1ccc(N=C(Nc2ccc(C(=O)OCC)cc2)c2ccc([N+](=O)[O-])cc2)cc1` stands 202 to 205 °C.
The compound `CCC1(O)CC(=O)OCc2c1cc1n(c2=O)Cc2cc3cccc(F)c3nc2-1` (stereo unspecified) returned a melting point greater than 250 °C.
Under `Oc1ccc2cc(COC=C3C4CC5CC(C4)CC3C5)ccc2c1` stands 133 to 140 °C.
Under `CC(C)OC(=Cn1ccnc1)c1ccc(Cl)cc1Cl` stands 184 to 186 °C; under `CCOP(=O)(CNCc1ccnc(-c2cc(C(C)(C)C)c(O)c(C(C)(C)C)c2)c1)OCC`, 66 to 69 °C; under `CCC(CC)NC(=O)C[C@@H](C(=O)NC[C@@H](O)[C@@H](N)Cc1ccccc1)C(C)(C)C`, 155 to 158 °C.
Under `Cn1ncc2c1-c1c(Oc3cc4c(cc3[N+](=O)[O-])OCO4)sc(C(N)=O)c1CC2` stands 230 to 231 °C; under `C=CS(=O)CCNC(=O)NC(=O)CCCl` (stereo unspecified), 113 to 135 °C.
The compound `CC1(C)CN=C(NCC2CCCc3ccc(S(=O)(=O)c4ccccc4)cc32)NC1` (stereo unspecified) returned a melting point of 140 to 145 °C.
Under `CC12CCC(O)CC1=CCC1C2CCC2(C)C(n3ccnc3)=CCC12` (stereo unspecified) stands 220 to 223 °C; under `Cc1cc2c(c(S(N)(=O)=O)n1)C(=O)OC2`, 211 to 213 °C.
`Cc1c(Cl)cccc1NS(=O)(=O)c1cc(S(=O)(=O)Nc2cccc(Cl)c2C)c2ccccc2c1O` yielded a melting point of 245 to 247 °C.
In the case of `CC(C)C[C@H]1[C@@H](O)C(=O)N1C(=O)OC(C)(C)C` it was 108 °C.
In the case of `NNC(=O)c1cnn(-c2ccc(N(CCO)CCO)nn2)c1N` it was 217 to 219 °C.
Under `CCC(=O)C1(Nc2ccccc2)CCN(CCc2ccccc2)CC1` stands 106 °C.
`CCOC1SCN(c2ccc(Cl)c(Cl)c2)C1=O` (stereo unspecified) displayed a melting point of 61 to 65 °C.
Compound `CN1CCC(CC(=O)N2c3ccccc3NC(=O)c3cscc32)CC1` displayed a melting point of 184 to 185 °C.
`Cc1c(NC(=O)c2ccc(-c3ccc(Cl)s3)cc2F)ccc2cc(CN3CCCCCC3)cnc12`: the melting point is 166 to 167 °C.
Under `CCCn1nc(C(F)(F)CCC)nc1Cc1ccc(-c2ccccc2-c2nnn[nH]2)nc1` stands 140 to 141 °C; under `CC1(C)C(=O)Nc2cc3[nH]cnc3cc21`, 278 to 280 °C; under `CON=C(C(=O)Nc1ccc(C(=O)O)cc1)c1ccc2c(c1)C(C)(C)CCC2(C)C`, 208 to 209 °C.
In the case of `CC(=O)c1ccc(/C=C(\C)c2ccc3c(c2)C(C)(C)CCC3(C)C)cc1` it was 148 to 149 °C; in that of `CON(C)C(=O)Nc1c(C(=O)C2CCCCC2)[nH]c2cc(Cl)ccc12`, 208 to 210 °C; in that of `CC(C(=O)O)c1ccc2oc(Cc3c(Cl)cccc3Cl)nc2c1` (stereo unspecified), 122 to 124 °C.
Under `O=C1CCCC(=O)N1Nc1ccc([N+](=O)[O-])cc1` stands 197 to 198 °C; under `Cn1ccnc1S(=O)c1ccc(Cl)cc1` (stereo unspecified), 96 to 97 °C.
Consider `Cn1nc(NC(=O)Nc2ccccc2)nc1NCCCOc1cccc(CN2CCCCC2)c1`, for which the melting point is 137 to 139 °C.
In the case of `CCOC(=O)c1cn(NCC(=O)OC)c2cc3c(cc2c1=O)OCO3` it was 142 to 145 °C; in that of `CCOC(=O)c1ccc(OCc2cnccn2)cc1`, 76.1 °C; in that of `O=C(NC1CCN(CCc2ccccc2)C1)C12CC3CC(CC(C3)C1)C2` (stereo unspecified), 119 to 121 °C.
